In paper PMC11938873 (Science Progress, 2025):

Experiments:
[1] = system: IvAIS1; assay: GC-MS product assay, t-anol formation; type: biochemical, Illicium verum; details: NADPH co-substrate; pH 7.0, 40 °C
[2] = system: IvAIS1; assay: GC-MS product assay, isoeugenol formation; type: biochemical, Illicium verum; details: NADPH co-substrate; pH 7.0, 45 °C

| SMILES | Km [1] | Km [2] |
| --- | --- | --- |
| CC(=O)OC/C=C/c1ccc(O)cc1 [coumaryl acetate] | 480 ± 86.6 µM |  |
| COc1cc(/C=C/COC(C)=O)ccc1O [coniferyl acetate] |  | 438 ± 44.3 µM |
